From article PMC10353187, “Discovery of a new potent oxindole multi-kinase inhibitor among a series of designed 3-alkenyl-oxindoles with ancillary carbonic anhydrase inhibitory activity as antiproliferative agents” (BMC Chemistry, 2023)
Where two headings read alike, the source gives them in different places.

Tests used:
VEGFRI = settings: cited from earlier work
VEGFRII = settings: cited from earlier work
VEGFRIII = settings: cited from earlier work
FGFRI = settings: cited from earlier work
FGFRII = settings: cited from earlier work
PDGFR α = settings: cited from earlier work
PDGF = settings: Fig. 2, reported multi-kinase inhibitors; cited from earlier work
ACHN = assay: NCI-60 single-dose antiproliferative assay (SRB); type: cell-based; settings: Homo sapiens, 10 μM single dose, Renal cancer, read-out: Cell Growth inhibition Percent
Description: (§1) From the newly synthesized compounds, eleven compounds (4c, 4d, 5, 9a, 9b, 11a, 11b, 13b, 13c, 15b, and 15c) were selected by the National Cancer Institute (NCI) Developmental Therapeutics Program (DTP), Bethesda, Maryland, USA for the in vitro anti-proliferative activity evaluation. The selected compounds were examined at 10 μM dose against the NCI 60-cell line panel. This panel consists of nine cell line groups of leukemia, non-small cell lung carcinoma (NSCLC), melanoma, colon, CNS, ovarian, renal, prostate, and breast cancers. The results are reported as mean-graph of the percent growth relative to control and presented as percentage growth inhibition (GI%), furthermore, mean GI% of each compound over all panel cell lines was calculated (Table 1; Additional file 1; S3: In vitro biological activity).
(§2) From the newly synthesized compounds, eleven compounds were selected by the National Cancer Institute (NCI) Developmental Therapeutics Program (DTP), Bethesda, Maryland, USA for the in vitro anti-proliferative activity evaluation (For further details see supplementary materials).
(§3) NCI In-vitro Cancer Screening is a two-phase procedure that starts with the assessment of all compounds against the sixty NCI cell line panel depicting leukemia, NSCLC, CNS cancer, melanoma, prostate cancer, breast cancer, renal cancer, colon cancer and ovarian cancer cell lines at a single point of 10μM. The output from the single-dose screen is reportable as a mean graph.
(§4) The human tumor cell lines of the cancer screening panel were grown in RPMI 1640 medium containing 5% fetal bovine serum and 2 mM L-glutamine. For a typical screening experiment, cells were inoculated into 96 well microtiter plates in […] at plating densities ranging from 5000 to 40,000 cells/well depending on the doubling time of individual cell lines. After cell inoculation, the microtiter plates were incubated at 37 °C, 5% CO2, 95% air and 100% relative humidity for 24 h prior to addition of experimental drugs. After 24 h, two plates of each cell line were fixed in situ with trichloroacetic acid (TCA), to represent a measurement of the cell population for each cell line at the time of drug addition (Tz). Experimental drugs were solubilized in dimethyl sulfoxide at 400-fold the desired final maximum test concentration and stored frozen prior to use. At the time of drug addition, an aliquot of frozen concentrate was thawed and diluted to twice the desired final maximum test concentration with complete medium containing 50 µg/ml gentamicin. Aliquot of 100 µl of the drug dilution was added to the appropriate microtiter wells already containing 100 µl of medium, resulting in the required final drug concentration (10 µM). Triplicate wells were prepared for each individual dose. Following drug addition, the plates were incubated for an additional 48 h at 37 °C, 5% CO2, 95% air, and 100% relative humidity. For adherent cells, the assay was terminated by the addition of cold TCA. Cells were fixed in situ by the gentle addition of 50 µl of cold 50% (w/v) TCA (final concentration, 10% TCA) and incubated for 60 min at 4 °C. The supernatant was discarded, and the plates were washed five times with tap water and air dried. Sulforhodamine B (SRB) solution (100 µl) at 0.4% (w/v) in 1% acetic acid was added to each well, and plates were incubated for 10 min at room temperature. After staining, unbound dye was removed by washing five times with 1% acetic acid and the plates were air dried. Bound stain was subsequently solubilized with 10 mM trizma base, and the absorbance was read on an automated plate reader at a wavelength of 515 nm. For suspension cells, the methodology was the same except that the assay was terminated by fixing settled cells at the bottom of the wells by gently adding 50 µl of 80% TCA (final concentration, 16% TCA). […]

CAKI-1 = assay: NCI-60 single-dose antiproliferative assay (SRB); type: cell-based; settings: Homo sapiens; 10 μM single dose; CAKI-1, Renal cancer; read-out: Cell Growth inhibition Percent
Description: as §1, §2, §3, §4

HOP-62 = assay: NCI-60 single-dose antiproliferative assay (SRB); type: cell-based; settings: Homo sapiens; 10 μM single dose; HOP-62, Non-small cell lung cancer; read-out: Cell Growth inhibition Percent
Description: as §1, §2, §3, §4

HOP-92 = assay: NCI-60 single-dose antiproliferative assay (SRB); type: cell-based; settings: Homo sapiens; 10 μM single dose; HOP-92, Non-small cell lung cancer; read-out: Cell Growth inhibition Percent
Description: as §1, §2, §3, §4

MCF7 = assay: NCI-60 single-dose antiproliferative assay (SRB); type: cell-based; settings: Homo sapiens; 10 μM single dose; MCF7, Breast cancer; read-out: Cell Growth inhibition Percent
Description: as §1, §2, §3, §4

NCI-H522 = assay: NCI-60 single-dose antiproliferative assay (SRB); type: cell-based; settings: Homo sapiens; 10 μM single dose; NCI-H522, Non-small cell lung cancer; read-out: Cell Growth inhibition Percent
Description: as §1, §2, §3, §4

OVCAR-8 = assay: NCI-60 single-dose antiproliferative assay (SRB); type: cell-based; settings: Homo sapiens; 10 μM single dose; OVCAR-8, Ovarian Cancer; read-out: Cell Growth inhibition Percent
Description: as §1, §2, §3, §4

SNB-75 = assay: NCI-60 single-dose antiproliferative assay (SRB); type: cell-based; settings: Homo sapiens; 10 μM single dose; SNB-75, CNS cancer; read-out: Cell Growth inhibition Percent
Description: as §1, §2, §3, §4

UO-31 = assay: NCI-60 single-dose antiproliferative assay (SRB); type: cell-based, human; settings: Homo sapiens, UO-31, 10 μM single dose; UO-31, Renal cancer; read-out: Cell Growth inhibition Percent
Description: as §1, §2, §3, §4

hCA I = hCA I (Homo sapiens, UniProt P00915); assay: Stopped flow CO2 hydrase assay
hCA I, sequence (P00915 whole entry): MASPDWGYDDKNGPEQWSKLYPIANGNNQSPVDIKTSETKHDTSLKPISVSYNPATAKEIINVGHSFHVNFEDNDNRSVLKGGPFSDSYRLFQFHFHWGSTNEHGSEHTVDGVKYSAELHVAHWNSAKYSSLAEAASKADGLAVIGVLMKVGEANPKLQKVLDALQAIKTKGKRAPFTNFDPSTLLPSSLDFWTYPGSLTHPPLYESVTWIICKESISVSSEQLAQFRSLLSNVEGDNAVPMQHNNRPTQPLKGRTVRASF

hCA II = hCA II (Homo sapiens, UniProt P00918); assay: Stopped flow CO2 hydrase assay
hCA IX [1] = target: T1, hCA IX (Homo sapiens, UniProt Q16790); assay: Stopped flow CO2 hydrase assay
hCA XII [2] = target: T2, hCA XII (Homo sapiens, UniProt O43570); assay: Stopped flow CO2 hydrase assay
T2 sequence (O43570 25-354): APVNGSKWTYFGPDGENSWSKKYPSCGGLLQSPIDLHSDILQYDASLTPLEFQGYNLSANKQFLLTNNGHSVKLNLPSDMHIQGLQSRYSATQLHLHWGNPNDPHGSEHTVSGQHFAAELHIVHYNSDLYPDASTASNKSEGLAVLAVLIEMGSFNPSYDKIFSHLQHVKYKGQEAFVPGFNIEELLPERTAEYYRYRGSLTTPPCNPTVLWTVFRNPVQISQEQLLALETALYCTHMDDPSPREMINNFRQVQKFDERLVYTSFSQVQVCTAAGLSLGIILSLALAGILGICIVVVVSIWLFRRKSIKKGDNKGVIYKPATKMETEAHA

786-0 = assay: NCI-60 single-dose antiproliferative assay (SRB); type: cell-based; settings: Homo sapiens; 10 μM single dose; 786-0, Renal cancer; read-out: Cell Growth inhibition Percent
Description: as §1, §2, §3, §4

A498 = assay: NCI-60 single-dose antiproliferative assay (SRB); type: cell-based; settings: Homo sapiens; 10 μM single dose; A498, Renal cancer; read-out: Cell Growth inhibition Percent
Description: as §1, §2, §3, §4

HL-60(TB) = assay: NCI-60 single-dose antiproliferative assay (SRB); type: cell-based; settings: Homo sapiens, 10 μM single dose, Leukemia, read-out: Cell Growth inhibition Percent
Description: as §1, §2, §3, §4

K-562 = assay: NCI-60 single-dose antiproliferative assay (SRB); type: cell-based; settings: Homo sapiens, K562; 10 μM single dose; K-562, Leukemia; read-out: Cell Growth inhibition Percent
Description: as §1, §2, §3, §4

KM12 = assay: NCI-60 single-dose antiproliferative assay (SRB); type: cell-based; settings: Homo sapiens; 10 μM single dose; KM12, Colon cancer; read-out: Cell Growth inhibition Percent
Description: as §1, §2, §3, §4

MDA-MB-231/ATCC = assay: NCI-60 single-dose antiproliferative assay (SRB); type: cell-based; settings: Homo sapiens, 10 μM single dose, Breast cancer, read-out: Cell Growth inhibition Percent
Description: as §1, §2, §3, §4

NCI-H23 = assay: NCI-60 single-dose antiproliferative assay (SRB); type: cell-based; settings: Homo sapiens; 10 μM single dose; NCI-H23, Non-small cell lung cancer; read-out: Cell Growth inhibition Percent
Description: as §1, §2, §3, §4

RPMI-8226 = assay: NCI-60 single-dose antiproliferative assay (SRB); type: cell-based; settings: Homo sapiens; 10 μM single dose; RPMI-8226, Leukemia; read-out: Cell Growth inhibition Percent
Description: as §1, §2, §3, §4

SK-MEL-5 = assay: NCI-60 single-dose antiproliferative assay (SRB); type: cell-based; settings: Homo sapiens; 10 μM single dose; SK-MEL-5, Melanoma; read-out: Cell Growth inhibition Percent
Description: as §1, §2, §3, §4

SN12C = assay: NCI-60 single-dose antiproliferative assay (SRB); type: cell-based; settings: Homo sapiens, 10 μM single dose, Renal cancer, read-out: Cell Growth inhibition Percent
Description: as §1, §2, §3, §4

SR = assay: NCI-60 single-dose antiproliferative assay (SRB); type: cell-based; settings: Homo sapiens, 10 μM single dose, Leukemia, read-out: Cell Growth inhibition Percent
Description: as §1, §2, §3, §4

T-47D = assay: NCI-60 single-dose antiproliferative assay (SRB); type: cell-based; settings: Homo sapiens, T47D, 10 μM single dose, Breast cancer, read-out: Cell Growth inhibition Percent
Description: as §1, §2, §3, §4

hCA IX [3] = target: T1, hCA IX; design: made in house; settings: reported CAIs, Fig. 1; cited from earlier work
hCA XII [4] = target: T2, hCA XII; design: made in house; settings: reported CAIs, Fig. 1; cited from earlier work
[5] = Fig. 2; read-out: cytotoxicity average IC50; cited from earlier work
VEGF = settings: Fig. 2, reported multi-kinase inhibitors; cited from earlier work
PDGFR β = settings: Fig. 2, reported multi-kinase inhibitors; read-out: PDGFB IC50; cited from earlier work

COC(=O)c1ccc2c(c1)NC(=O)/C2=C(\Nc1ccc(N(C)C(=O)CN2CCN(C)CC2)cc1)c1ccccc1 [Nintedanib]
IC50 (VEGFRI; read-out: IC50 VEGFRI): 0.034 µM
IC50 (VEGFRII; read-out: IC50 VEGFRII): 0.013 µM
IC50 (VEGFRIII): 0.013 µM
IC50 (FGFRI; read-out: IC50 FGFRI): 0.069 µM
IC50 (FGFRII): 0.037 µM
IC50 (PDGFR α): 0.059 µM
IC50 (PDGF): 0.059 µM

Cc1ccc(C(=O)Nc2ccc(CN3CCN(C)CC3)c(C(F)(F)F)c2)cc1C#Cc1cnc2cccnn12 [ponatinib]
IC50 (FGFRI; FGFR-1, inhibitor co-crystallized in PDB ID: 4V01, ref 5 (supplement), read-out: IC50): 0.0007 µM

NS(=O)(=O)c1ccc(NC(=O)c2ccc(NC=C3C(=O)Nc4ccccc43)cc2)cc1 [Compound 9a, 4-{[(2-Oxoindolin-3-ylidene)methyl]amino}-N-(4-sulfamoylphenyl)benzamide]
inhibition at 10 µM (ACHN): 1.9%
inhibition at 10 µM (CAKI-1): 8.65%
inhibition at 10 µM (HOP-62): 2.73%
inhibition at 10 µM (HOP-92): 6.83%
inhibition at 10 µM (MCF7): 6.01%
inhibition at 10 µM (NCI-H522): 5.55%
inhibition at 10 µM (OVCAR-8): 0.63%
inhibition at 10 µM (SNB-75): 4.88%
inhibition at 10 µM (UO-31): 18%
Ki (hCA I): 0.332 µM
Ki (hCA II): 0.313 µM
Ki (hCA IX [1]): 0.0688 µM
Selectivity ratio I/IX (hCA IX [1]; Ki hCA I / Ki hCA IX): 4.83
Selectivity ratio II/IX (hCA IX [1]; Ki hCA II / Ki hCA IX): 4.55
Ki (hCA XII [2]): 0.0594 µM
Selectivity ratio I/XII (hCA XII [2]; Ki hCA I / Ki hCA XII): 5.59
Selectivity ratio II/XII (hCA XII [2]; Ki hCA II / Ki hCA XII): 5.27

O=C1Nc2ccccc2C1=CNc1ccc(C(=O)C=CNc2ccc(S(=O)(=O)Nc3ncccn3)cc2)cc1 [Compound 13b, 4-{[3-Oxo-3-(4-{[(2-oxoindolin-3-ylidene)methyl]amino}phenyl)prop-1-en-1-yl]amino}-N-(pyrimidin-2-yl)benzenesulfonamide]
inhibition at 10 µM (786-0): 3.85%
inhibition at 10 µM (A498): 1.46%
inhibition at 10 µM (CAKI-1): 5.62%
inhibition at 10 µM (HL-60(TB)): 0.37%
inhibition at 10 µM (HOP-92): 6.38%
inhibition at 10 µM (K-562): 2.89%
inhibition at 10 µM (KM12): 62.7%
inhibition at 10 µM (MCF7): 12.6%
inhibition at 10 µM (MDA-MB-231/ATCC): 0.12%
inhibition at 10 µM (NCI-H23): 3.53%
inhibition at 10 µM (NCI-H522): 1.35%
inhibition at 10 µM (RPMI-8226): 13.6%
inhibition at 10 µM (SK-MEL-5): 1.85%
inhibition at 10 µM (SN12C): 1.75%
inhibition at 10 µM (SR): 17.9%
inhibition at 10 µM (T-47D): 6.91%
inhibition at 10 µM (UO-31): 7.6%
melting point: 290 to 294 °C
Ki (hCA I): > 10 µM
Ki (hCA II): > 10 µM
Ki (hCA IX [1]): > 10 µM
Ki (hCA XII [2]): > 10 µM

O=C(O)c1cc(Sc2ccccn2)cc([N+](=O)[O-])c1 [V]
Ki (hCA IX [3]): 0.018 µM
Ki (hCA XII [4]): 0.0821 µM

CCN(CC)CCNC(=O)c1c(C)[nH]c(/C=C2\C(=O)Nc3ccc(F)cc32)c1C [Sunitinib]
IC50 [5]: 8.11 µM
IC50 (PDGF): 0.002 µM
IC50 (VEGF): 0.08 µM

O=S(=O)(Nc1nc2ccc(Cl)cc2s1)c1ccc(F)cc1 [VI]
Ki (hCA IX [3]): 0.95 µM
Ki (hCA XII [4]): 0.085 µM

CNC(=O)c1cc(Oc2ccc(NC(=O)Nc3ccc(Cl)c(C(F)(F)F)c3)c(F)c2)ccn1 [Regorafenib]
IC50 (VEGFRI; Fig. 2, reported multi-kinase inhibitors, read-out: VEGFI IC50): 0.013 µM
IC50 (VEGFRII; Fig. 2, reported multi-kinase inhibitors, read-out: VEGFII IC50): 0.042 µM
IC50 (PDGFR β): 0.022 µM
